{"source": "patent US20200254020A1", "about": "“Methods and Compositions for Modulating the WNT-Signaling Pathway as Treatments for Inflammatory Diseases” (UNIVERSITY OF SOUTH CAROLINA, priority 2019, published 2020)", "assay_type_in_all_cases": "cell-based, human", "key": {"[1]": {"test_system": "WNT signaling pathway", "test": "Blocking WNT signaling with IWR-1 in PMA-activated PBMCs, IFNγ expression", "conditions": "10 μM IWR-1, 200 nM PMA", "description": "To investigate whether WNT10B was directly responsible for the upregulation of IFNγ expression, the WNT signaling pathway was blocked using an inhibitor of WNT response-1 (IWR-1, Sigma-Aldrich, St. Louis, Mo., cat # I0161). IWR-1 inhibits WNT signaling by stabilizing AXIN1 and prevents its degradation. AXIN1 is an inhibitor of WNT signaling pathway30. PBMCs (2×106) from healthy controls were cultured overnight (˜18 hours) with 10 LM of IWR-1 in separate wells of a 96-well culture plate in 200 μl complete RPMI medium. The following day, PMA and IWR-1 (in a 10 μl volume) were added to the culture to reach a final concentration of 200 nM PMA and 10 μM IWR-1, respectively. After 6 hours, WNT10B was added to the designated wells. Cells were harvested after 24 and 48 hours of adding WNT10B for total RNA extraction. Culture supernatant was collected for ELISA. ELISA for human IFNγ was performed on culture supernatants. The kit for ELISA was purchased from BioLegend Inc. (CA, USA) and assay was performed following the manufacturer's instructions. Reading for OD was performed in a Victor2TM, 1420 Multilabel Counter (Perkin Elmer, USA) plate reader."}, "[2]": {"test_system": "WNT10B", "test": "Micro-RNA mimic assay: transfection of THP1 cells, WNT10B mRNA (qRT-PCR) and protein (western blot)", "conditions": "5 pmol per well mimic", "description": "THP1 cells obtained from ATCC were cultured in complete RPMI medium containing 10% FBS, penicillin, and streptomycin, HEPES buffer and 2-mercaptoethanol. The incubation condition was at 37° C. and 5% CO2.\nTo investigate whether hsa-miR-7113-5p regulated expression of WNT10B, miRNA mimic transfection studies were performed in THP1 cells. Mimics and inhibitors of the miRNA were obtained from Qiagen Inc. and transfected into the cells by employing Lipofectamine RNAiMAX (Invitrogen, ThermoFisher Scientific, USA). One day prior to transfection, 2×10^5 THP1 cells were plated in a 24-well plate in 5001l complete RPMI medium. Mimic, inhibitor, and scrambled oligos were then added at an amount of 5 pmol per well. Cells were cultured for the indicated time after transfection and harvested for RNA and protein isolation. RNA samples were used for qRT-PCR based quantification of mRNAs and miRNAs. Whole-cell lysates were used for western blot analysis of miRNA target protein.\nFor the Western blot, anti-human-WNT10B was purchased from SIGMA-ALDRICH (cat # PRS4619). […] The total protein was not pre-quantified for loading onto the SDS-PAGE as the protein amount was to be normalized using an internal control. […] Protein bands were detected in a LI-COR blot detection system (Li-Cor Inc, Nebraska, USA)."}, "[3]": {"test_system": "PBMCs", "test": "WNT10B signaling pathway initiation: rh-WNT10B added to PBMC cultures, proinflammatory gene expression and IFNγ ELISA", "conditions": "for expression of IFNγ at mRNA level / expression of Tbx-21 at mRNA level: vs un-activated PBMCs or PMA activated PBMCs without rh-WNT10B", "description": "To analyze whether WNT 10B could influence the expression of proinflammatory genes, WNT signaling was initiated by adding recombinant human (rh)-WNT10B in PBMCs cultures. The PBMCs were isolated from healthy human individuals. Two million cells were cultured in 200 μl medium in a 96-well tissue culture plates as follows: First, the PBMCs were stimulated with Phorbol 12-myristate 13-acetate (PMA) (200 nM) for 6 hours following which, 200 ng/ml rh-WNT10B was added. Then, the PBMCs were harvested after 24 and 48 hours and used for RNA and whole cell lysate (WCL) extraction for further analysis. The culture supernatants were also collected for ELISA to detect IFNγ. The following combinations were used as controls: 1) PBMCs+PMA without WNT10B and 2) PBMCs+WNT10B without PMA.\nBefore activation of cells and to see whether pre-exposure of cells to WNT10B can influence inflammatory gene expression, WNT10B (200 ng/ml) was first added in all the culture with PBMCs. After 24 hours, PMA (200 nM) was added to activate the cells. The following condition was used for the control: PBMCs+WNT10B without PMA. The cells were then harvested 24 hours after addition of PMA.\nTo test if chronic presence of WNT 10B alone (without stimulation with PMA) can lead to increased expression of inflammatory genes in the PBMCs, PBMCs (2×10^6 cells/well, in 200 μl, in a 96-well plate) were cultured with rh-WNT10B (200 ng/ml) for 96 hours. Additional rh-WNT10B was added after every 24 hours of culture. Cells were harvested every 24 hours for RNA and whole-cell lysate isolation. Supernatants were also collected for performing ELISA.\nELISA for human IFNγ was performed on culture supernatants. The kit for ELISA was purchased from BioLegend Inc. (CA, USA) and assay was performed following the manufacturer's instructions. Reading for OD was performed in a Victor2TM, 1420 Multilabel Counter (Perkin Elmer, USA) plate reader."}, "[4]": {"conditions": "PMA (200 nM) activated PBMCs, 200 ng/ml rh-WNT10B, 24 hours"}, "[5]": {"conditions": "PMA (200 nM) activated PBMCs, 200 ng/ml rh-WNT10B, 48 hours"}}}
{"molecule": "O=C(Nc1cccc2cccnc12)c1ccc(N2C(=O)C3C(C2=O)[C@H]2C=C[C@@H]3C2)cc1", "note": "(stereo partly shown) [IWR-1, 4-(1,3,3a,4,7,7a-Hexahydro-1,3-dioxo-4,7-methano-2H-isoindol-2-yl)-N-8-quinolinyl-benzamide]", "values": [{"measurement": "expression of IFNγ and other proinflammatory genes upon addition of WNT10B", "setting": "[1]; WNT10B added after 6 hours", "result": "did not lead to increased expression"}, {"measurement": "expression of IFNγ", "setting": "[1]; compared to cells activated with PMA only", "result": "significantly downregulated"}]}
{"molecule": "mimics of hsa-miR-7113-5p: Mimic of miRNA hsa-miR-7113-5p (UCCAGGGAGACAGUGUGUGAG, SEQ ID NO: 2) obtained from Qiagen Inc. (listed as RNA, chemistry not given here; listed as Homo sapiens)", "values": [{"measurement": "level of WNT10B mRNA", "setting": "[2]; qRT-PCR, compared to scrambled miRNA and miRNA-7113-5p-inhibitor treated groups", "result": "Significant reduction"}, {"measurement": "level of WNT10B protein", "setting": "[2]; western blot of whole-cell lysate after 72 hours, compared to scrambled miRNA and inhibitor groups", "result": "Significant reduction"}]}
{"molecule": "rh-WNT10B: recombinant human (rh)-WNT10B added to PBMC cultures to initiate WNT signaling", "values": [{"measurement": "protein level of IFNγ", "setting": "[3]; PMA (200 nM) activated PBMCs, 200 ng/ml rh-WNT10B, 24 hours, ELISA on culture supernatant", "result": "significant increase"}, {"measurement": "expression of IFNγ at mRNA level", "setting": "[3]; [4]", "result": "significant increase"}, {"measurement": "expression of Tbx-21 at mRNA level", "setting": "[3]; [4]", "result": "significant increase"}, {"measurement": "expression of IFNγ at mRNA level", "setting": "[3]; [5]", "result": "significant increase"}, {"measurement": "expression of Tbx-21 at mRNA level", "setting": "[3]; [5]", "result": "significant increase"}, {"measurement": "induction of inflammatory genes, including STAT3, STAT4, or IFNγ", "setting": "[3]; rh-WNT10B (200 and 500 ng/ml) alone added to naïve PBMCs, without PMA", "result": "did not induce any inflammatory genes"}]}
